Key:
Type in all cases: cell-based
LnCap (PRAD) cells = assay: Viability of control and TP53/RB1-loss LnCap cells treated with simurosertib; conditions: 0.5 μM; double TP53/RB1 loss versus control
Excerpt: FIG. 4A: CDC7 mRNA expression in adenocarcinoma clinical specimens, categorized by their TP53/RB1 status. Data obtained from LUAD TCGA (PanCancer), LUAD OncoSG (OncoSG, Nat Genetics 2020) and PRAD TCGA (PanCancer). FIG. 4B: Western blot showing CDC7 protein levels in isogenic H1563 (LUAD) and 22PC (PRAD) cell lines with or without induced loss of function of TP53 and/or RB1 (see methods). FIG. 4C: Plot showing a representative biological replicate of an experiment assessing viability of control and TP53/RB1-loss H1563, 22PC and LnCap (PRAD) cells treated with 0.5 μM simurosertib. Student's t-test was performed to assess statistical significance (two-tailed, assuming heterogeneous value distribution). p-value legend: *<0.05, **<0.01, ***<0.001.
TP53/RB1-deficient PRAD cell lines were generated as previously described^16. TP53/RB1-deficient LUAD cell lines were generated by lentiviral transduction of a construct expressing a dominant negative TP53 isoform and a short hairpin RNA against RB1, produced from the FU-CYW vector that was previously described^18 and kindly shared by Dr. Owen Witte.
Cytotoxic assays were performed as described in ^19. A total of 1,500 cells/well were seeded in 96-well plates and treated with the drugs/doses described for 96 hours. Viability was assessed with the CellTiter-Glo 2.0 Assay (Promega, G9242) as indicated by manufacturer.

SCLC cell lines = assay: Growth inhibition of SCLC cell lines by CDC7 inhibitors, correlation with CDC7 mRNA and protein expression; conditions: array of SCLC cell lines, Spearman's test
Excerpt: FIG. 1A: CDC7 mRNA expression in cell lines derived from different tumor types. The data was obtained from CCLE through UCSC Xenabrowser portal (https://xenabrowser.net/) in December 2020. Lines indicate the median CDC7 mRNA expression in SCLC cell lines. FIG. 1B: CDC7 protein expression assessed by IHC in NSCLC (N=58) and SCLC (N=45) clinical samples. Protein expression is shown as IHC score. H-score medians and standard deviation are shown. FIG. 1C: Western blot showing CDC7 KO in H82 (SCLC-N) and H146 (SCLC-A) SCLC cell lines. Proliferation (FIG. 1D) and soft agar colony formation (FIG. 1E) assays in isogenic H82 and H146 cell lines with CDC7 KO. In FIG. 1D, lower line graphs correspond to CDC7 KO (sgCDC7). FIG. 1F: Ectopic overexpression of CDC7 in H69 (SCLC-A) and DMS114 (SCLC-Y) SCLC cell lines. Proliferation (FIG. 1G) and soft agar colony formation (FIG. 1H) assays in isogenic H69 and DMS114 cell lines with ectopic CDC7 overexpression. […] FIG. 1I: Bivariate correlation of CDC7 mRNA and protein expression with simurosertib or LY3143921 sensitivity (assessed as growth inhibition) in an array of SCLC cell lines. Correlation was calculated with Spearman's test. […]
Cytotoxic assays were performed as described in ^19. […] Viability was assessed with the CellTiter-Glo 2.0 Assay (Promega, G9242) as indicated by manufacturer. […]

Proteasome 20S = assay: Proteasome activity assay; conditions: prostate transformation models (FIG. 6D)
Excerpt: FIG. 6A: Pathway enrichment analyses on differentially expressed genes between the combo-and enzalutamide-treated tumors, collected at an intermediate time point in the for TP53/RB1-inactivated LnCap and 22PC experiments shown in FIG. 5. […] FIG. 6C: MYC mRNA levels in the tumors collected at endpoint in the prostate transformation models treated in FIG. 5A. FIG. 6D: Barplot showing proteasome activity in control and CDC7-inhibited (either pharmacologically by simurosertib, or genetically by CDC7 CRISPR KO) prostate transformation models. FIG. 6E: Western blots showing neuroendocrine marker expression in prostate models of transformation, when treated with enzalutamide, simurosertib or their combination. Specifically, for each treatment condition, isogenic control and MYC^T58A-expressing cells were analyzed.
Proteasome activity was measured with the Proteasome 20S Activity Assay Kit (#MAK172, Sigma), following the manufacturer's instructions.

For Cc1n[nH]cc1-c1cc2nc([C@@H]3CC4CCN3CC4)[nH]c(=O)c2s1 [simurosertib], the simurosertib sensitivity (LnCap (PRAD) cells) was “increased simurosertib sensitivity”, the “sensitivity correlation with CDC7 mRNA and protein expression” value (SCLC cell lines) was “correlated with CDC7 mRNA and protein expression” and the proteasome activity (Proteasome 20S) was “induced proteasome activity”.
